Test results reported in patent US20080004302A1, “Novel Compounds” (ASTRAZENECA AB, priority 2006, published 2008).
Where two headings read alike, the source gives them in different places.

Legend:
human IGF1R = target: T1, human IGF1R (Homo sapiens, UniProt P08069); assay: Inhibition of insulin-like growth factor-1 receptor phosphorylation in R+ cells; type: cell-based; settings: 30 nM IGF1, read-out: IGF cell class
T1 construct: expressed in transfected cells; host or cells: R+ cells (R- mouse fibroblasts transfected with human IGF1R)
T1 sequence (P08069 31-1367): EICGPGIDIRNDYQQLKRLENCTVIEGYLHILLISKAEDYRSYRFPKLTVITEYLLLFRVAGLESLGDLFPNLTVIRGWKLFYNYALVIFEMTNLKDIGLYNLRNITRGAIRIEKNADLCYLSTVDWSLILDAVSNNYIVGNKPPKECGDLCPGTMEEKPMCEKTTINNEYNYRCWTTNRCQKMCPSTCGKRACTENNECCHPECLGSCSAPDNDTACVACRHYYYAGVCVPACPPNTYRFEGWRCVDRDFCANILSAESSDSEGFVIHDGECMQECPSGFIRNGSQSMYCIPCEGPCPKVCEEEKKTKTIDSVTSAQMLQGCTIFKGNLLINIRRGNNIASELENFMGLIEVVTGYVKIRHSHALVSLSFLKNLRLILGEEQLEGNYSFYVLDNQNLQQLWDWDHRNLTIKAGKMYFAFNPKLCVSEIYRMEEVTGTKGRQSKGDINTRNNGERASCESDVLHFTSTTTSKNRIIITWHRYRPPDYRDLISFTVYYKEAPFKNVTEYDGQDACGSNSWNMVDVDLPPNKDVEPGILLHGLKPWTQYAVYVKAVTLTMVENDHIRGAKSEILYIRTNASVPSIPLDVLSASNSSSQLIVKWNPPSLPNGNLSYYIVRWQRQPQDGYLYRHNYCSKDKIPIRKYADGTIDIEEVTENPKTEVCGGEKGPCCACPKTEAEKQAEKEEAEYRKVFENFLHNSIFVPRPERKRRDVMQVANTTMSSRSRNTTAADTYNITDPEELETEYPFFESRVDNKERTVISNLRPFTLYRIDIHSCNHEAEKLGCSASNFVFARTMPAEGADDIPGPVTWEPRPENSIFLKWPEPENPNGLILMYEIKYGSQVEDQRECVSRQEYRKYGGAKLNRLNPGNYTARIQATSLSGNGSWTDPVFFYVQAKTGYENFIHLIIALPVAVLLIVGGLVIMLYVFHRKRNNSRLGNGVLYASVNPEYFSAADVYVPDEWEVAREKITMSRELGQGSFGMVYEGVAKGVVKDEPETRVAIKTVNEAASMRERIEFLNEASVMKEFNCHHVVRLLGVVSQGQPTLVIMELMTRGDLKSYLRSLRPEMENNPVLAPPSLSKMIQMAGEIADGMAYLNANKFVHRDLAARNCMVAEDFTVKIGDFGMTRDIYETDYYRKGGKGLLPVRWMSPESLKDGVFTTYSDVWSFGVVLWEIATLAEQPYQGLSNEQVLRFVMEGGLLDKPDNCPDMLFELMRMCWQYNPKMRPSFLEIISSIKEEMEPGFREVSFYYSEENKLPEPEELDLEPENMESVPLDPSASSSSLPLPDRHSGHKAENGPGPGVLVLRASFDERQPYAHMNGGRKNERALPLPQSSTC

FGFR1 IIIc [1] = target: T2, FGFR1 IIIc (Homo sapiens, UniProt P11362); assay: Cell based inhibition of transiently expressed FGFR1 IIIc phosphorylation via use of ECHO technology (Cos-1 cells)
T2 construct: host or cells: Cos-1
T2 sequence (P11362 22-822): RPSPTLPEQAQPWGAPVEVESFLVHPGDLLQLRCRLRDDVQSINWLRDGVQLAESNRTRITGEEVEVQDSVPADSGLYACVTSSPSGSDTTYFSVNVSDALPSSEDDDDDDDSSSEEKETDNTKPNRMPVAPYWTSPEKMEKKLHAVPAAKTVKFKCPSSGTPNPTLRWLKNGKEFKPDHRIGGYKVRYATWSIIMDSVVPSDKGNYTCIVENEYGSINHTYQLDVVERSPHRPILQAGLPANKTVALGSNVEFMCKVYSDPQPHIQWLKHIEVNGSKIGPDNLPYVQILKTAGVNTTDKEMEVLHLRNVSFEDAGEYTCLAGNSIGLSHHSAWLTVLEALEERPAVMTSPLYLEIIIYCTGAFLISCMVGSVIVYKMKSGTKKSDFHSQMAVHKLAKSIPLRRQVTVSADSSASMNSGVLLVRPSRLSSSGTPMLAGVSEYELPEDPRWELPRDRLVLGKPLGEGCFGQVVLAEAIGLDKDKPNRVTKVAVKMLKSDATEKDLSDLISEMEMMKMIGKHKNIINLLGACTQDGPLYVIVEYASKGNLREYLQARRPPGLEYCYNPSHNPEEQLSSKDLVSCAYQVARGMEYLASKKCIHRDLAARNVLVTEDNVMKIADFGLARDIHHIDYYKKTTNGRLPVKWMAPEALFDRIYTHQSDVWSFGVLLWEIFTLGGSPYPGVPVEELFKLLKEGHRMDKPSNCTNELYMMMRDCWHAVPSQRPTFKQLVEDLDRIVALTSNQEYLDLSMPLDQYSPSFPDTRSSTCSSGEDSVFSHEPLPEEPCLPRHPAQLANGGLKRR

Erk phosphorylation = assay: Growth factor (bFGF) stimulated Erk phosphorylation in NIH 3T3 cells; settings: Mus musculus, NIH3T3, NIH 3T3 cells, 3 ng/ml bFGF
FGFR kinase domain = target: T3, FGFR kinase domain (Homo sapiens, UniProt P11362, C488A/C584S); assay: Kinase assay (ELISA) for inhibition of FGFR activity; type: biochemical
T3 construct: FGFR kinase domain (amino acids 458-765, C488A, C584S) N-terminally fused to a His6-tag; made in house
T3 sequence (P11362 458-765 C488A/C584S): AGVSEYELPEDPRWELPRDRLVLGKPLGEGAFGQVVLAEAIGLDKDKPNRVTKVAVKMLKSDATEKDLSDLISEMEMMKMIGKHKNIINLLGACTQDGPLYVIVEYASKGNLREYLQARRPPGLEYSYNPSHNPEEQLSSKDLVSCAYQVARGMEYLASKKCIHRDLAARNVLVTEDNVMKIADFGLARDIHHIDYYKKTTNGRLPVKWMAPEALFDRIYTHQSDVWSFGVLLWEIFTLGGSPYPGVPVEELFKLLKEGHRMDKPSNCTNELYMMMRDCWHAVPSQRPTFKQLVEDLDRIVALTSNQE
Procedure: To determine inhibition of FGFR activity, kinase assays were conducted using ELISA (Enzyme-Linked Immunosorbent Assay) technology.
Kinase activity assays were performed in 384-well polypropylene plates (Matrix, 4311) with a total volume of 40 μl in each well. Each well was coated with 2 μg of polyEAY substrate (Sigma, P3899) at 4° C. overnight. The plates were then washed once with 100 μl PBS and once with 100 μl 50 mM HEPES (pH 7.4) prior to the addition of the kinase assay reagents. […] Various concentrations of test compounds were each added in 5% (v/v) DMSO to yield a final assay DMSO concentration of 1.25% (v/v). The kinase reactions were incubated at room temperature for 45 minutes and stopped by washing the plate three times with 100 μl PBS plus 0.05% Tween. […] Following this, the plates were then washed repeatedly with 100 μl PBS plus 0.05% Tween to remove all traces of the antibody solution. 40 μl of 50 μg/ml 3,3′,5,5′-Tetramethylbenzidine (Sigma, T2885), 0.05M phosphate-citrate buffer, containing 0.03% sodium perborate was added to each well and the plates incubated at room temperature for twelve minutes. The colour reaction was stopped by the addition of 20 μl 2M H2SO4 and the plates read at 450 nm on a Spectrafluor Plus (Tecan).

FGFR1 IIIc [2] = target: T2, FGFR1 IIIc; assay: Cell based inhibition of transiently expressed FGFR1 IIIc phosphorylation (Cos-1 cells); settings: Cos-1 cells, phospho-FGFR1; upper bound of bin; read-out: IC50
FGFR1 kinase = FGFR1 kinase (Homo sapiens, UniProt P11362); assay: Kinase assay (using Caliper technology); type: biochemical; settings: FGFR1 kinase, Caliper; upper bound of bin; read-out: IC50
FGFR1 kinase, sequence (P11362 22-822): as the sequence (P11362 22-822) above
In short: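 Human FGFR1 kinase activity measured with a 13-mer fluorescently tagged FGFR1-specific peptide substrate; compounds serially diluted in 5% (v/v) DMSO. Reactions ran 1.5 h at room temperature, stopped with EDTA-containing HEPES pH 7.5 buffer. Phosphorylated and unphosphorylated peptide separated by microfluidic mobility shift.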

[3] = target: human cytochrome P450 (CYP) 2C19 (Homo sapiens, UniProt P33261)
human cytochrome P450 (CYP) 2C19, sequence (P33261 whole entry): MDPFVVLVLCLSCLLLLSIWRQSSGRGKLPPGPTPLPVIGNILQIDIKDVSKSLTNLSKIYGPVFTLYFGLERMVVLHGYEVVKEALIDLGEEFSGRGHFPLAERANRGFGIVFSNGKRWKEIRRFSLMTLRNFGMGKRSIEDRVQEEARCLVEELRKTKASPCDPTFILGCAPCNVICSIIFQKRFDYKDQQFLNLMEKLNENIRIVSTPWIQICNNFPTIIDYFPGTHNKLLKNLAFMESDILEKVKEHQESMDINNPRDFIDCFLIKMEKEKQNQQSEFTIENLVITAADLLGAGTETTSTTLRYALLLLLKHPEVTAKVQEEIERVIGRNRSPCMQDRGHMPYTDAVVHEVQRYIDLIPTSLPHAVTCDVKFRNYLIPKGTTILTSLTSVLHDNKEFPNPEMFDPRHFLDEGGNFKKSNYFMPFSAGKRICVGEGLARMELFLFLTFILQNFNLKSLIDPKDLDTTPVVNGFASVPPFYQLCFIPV
Procedure: The inhibitory potential (IC50) of test compounds against 5 human cytochrome P450 (CYP) isoforms (IA2, 2C9, 2C19, 3A4 and 2D6) was assessed using an automated fluorescent end point in vitro assay modified from Crespi (Crespi and Stresser, 2000). Microsomal subcellular fractions prepared from Yeast cell lines expressing each human CYP isoform were used as an enzyme source in this assay. The activity of the 5 major human CYPs was determined from the biotransformation of a number of coumarin substrates to fluorescent metabolites, in the presence of NADPH. […] Stock solutions of each CYP, with its respective substrate, were prepared in phosphate buffer pH7.4 (see Table 1) and 178 μl was added to the well of a black solid, flat bottom, 300 μl 96 well microtitre plate (Coming Costar). […] After pre-incubating at 37° C. for 5 min the reactions were started with addition of NADPH (20 μl, concentration shown in Table 1). The final solvent content in each incubation was <=2% (1% from the test compound and a maximum of 1% from the substrate). The appropriate solvent controls and substrate blanks were included in each experiment to assess control activity and identify any inherent fluorescence due to the test compounds. In addition, known inhibitors of each CYP were included as positive controls (see Table 3 for inhibitor concentrations and expected IC50 ranges). The reactions were stopped at defined timepoints (see Table 1) by quenching with 100 μl of solvent (acetonitrile:0.5M Tris buffer 80:20 v/v). The plates were read on a fluorimeter (Spectrafluor Plus) at the appropriate excitation and emission wavelengths (listed in Table 2) and the percent activity, corrected for control, was plotted against the test compound concentration.

[4] = Cos-1 cells, phospho-FGFR1, ECHO dosing, upper bound of bin, read-out: IC50
[5] = FGFR inhibition tests, ELISA kinase assay, read-out: Activity class

SMILES	IC50 (human IGF1R) [nM]	IC50 (FGFR1 IIIc [1]; [4]) [nM]	IC50 (FGFR kinase domain; [5]) [nM]	IC50 (FGFR1 IIIc [2]) [nM]	IC50 (FGFR1 kinase) [nM]	further results
Cc1cc(Nc2ccnc(NCc3cc(C(N)=O)no3)n2)[nH]n1 [Example 4, 5-[[[4-[(5-methyl-2H-pyrazol-3-yl)amino]pyrimidin-2-yl]amino]methyl]isoxazole-3-carboxamide]	> 10000	–	–	–	–	IC50 (FGFR1 IIIc [1]): < 10000 nM; IC50 (FGFR kinase domain; Activity class): 100 to 1000 nM
CCCc1cc(Nc2ccnc(NCc3cc(C)no3)n2)n[nH]1 [Example 6, N-[(3-methylisoxazol-5-yl)methyl]-N ′-(5-propyl-2H-pyrazol-3-yl)pyrimidine-2,4-diamine]	100 to 1000	< 200	< 100	–	–	–
NC(=O)c1cc(CNc2nccc(Nc3cc(C4CC4)n[nH]3)n2)on1 [Example 11, 5-[[[4-[(5-cyclopropyl-2H-pyrazol-3-yl)amino]pyrimidin-2-yl]amino]methyl]-1,2-oxazole-3-carboxamide]	1000 to 10000	< 1000	< 100	–	–	–
COc1ccc(CCc2cc(Nc3ccnc(NCc4cc(C)no4)n3)n[nH]2)cc1 [Example 24, N′-[5-[2-(4-methoxyphenyl)ethyl]-2H-pyrazol-3-yl]-N-[(3-methyl-1,2-oxazol-5-yl)methyl]pyrimidine-2,4-diamine]	> 10000	–	100 to 1000	< 1000	< 1000	–
COc1ccc(CCc2cc(Nc3ccnc(NCc4cc(C5CC5)no4)n3)n[nH]2)cc1 [Example 25, N-[(3-cyclopropyl-1,2-oxazol-5-yl)methyl]-N′-[5-[2-(4-methoxyphenyl)ethyl]-2H-pyrazol-3-yl]pyrimidine-2,4-diamine]	–	< 200	100 to 1000	–	< 1000	–
COc1ccc(CCc2cc(Nc3ccnc(NCc4cc(C(N)=O)no4)n3)[nH]n2)cc1 [Example 26, 5-[[[4-[[5-[2-(4-methoxyphenyl)ethyl]-2H-pyrazol-3-yl]amino]pyrimidin-2-yl]amino]methyl]-1,2-oxazole-3-carboxamide]	–	< 10000	100 to 1000	–	< 1000	–
COc1cccc(CCc2cc(Nc3ccnc(NCc4cc(C5CC5)no4)n3)n[nH]2)c1 [Example 28, N-[(3-cyclopropyl-1,2-oxazol-5-yl)methyl]-N′-[5-[2-(3-methoxyphenyl)ethyl]-2H-pyrazol-3-yl]pyrimidine-2,4-diamine]	–	< 200	100 to 1000	< 200	< 200	–
COc1cccc(CCc2cc(Nc3ccnc(NCc4cc(-c5ncccn5)no4)n3)[nH]n2)c1 [Example 33, N′-[5-[2-(3-methoxyphenyl)ethyl]-2H-pyrazol-3-yl]-N-[(3-pyrimidin-2-yl1,2-oxazol-5-yl)methyl]pyrimidine-2,4-diamine]	> 10000	–	–	–	< 200	IC50 (Erk phosphorylation): 518 nM; IC50 (Erk phosphorylation; upper bound of bin): < 1000 nM; IC50 (FGFR kinase domain; stated after the ELISA results table, read-out: IC50): 92 nM
CC(C)Oc1cc(Nc2ccnc(NCc3cc(C4CC4)no3)n2)n[nH]1 [Example 67, N-[(3-cyclopropyl-1,2-oxazol-5-yl)methyl]-N′-(5-propan-2-yloxy-2H-pyrazol-3-yl)pyrimidine-2,4-diamine]	1000 to 10000	< 200	< 100	< 200	< 200	IC50 (Erk phosphorylation): < 200 nM
Cc1cc(Nc2cc(OC(C)C)[nH]n2)nc(NCc2cc(C3CC3)no2)n1 [Example 69, N-[(3-cyclopropyl-1,2-oxazol-5-yl)methyl]-6-methyl-N′-(5-propan-2-yloxy-2H-pyrazol-3-yl)pyrimidine-2,4-diamine]	–	< 200	< 100	–	< 200	–
COc1cc(Nc2cc(OC(C)C)[nH]n2)nc(NCc2cc(C3CC3)no2)n1 [Example 71, N-[(3-cyclopropyl-1,2-oxazol-5-yl)methyl]-6-methoxy-N′-(5-propan-2-yloxy-2H-pyrazol-3-yl)pyrimidine-2,4-diamine]	–	< 200	< 100	–	< 200	–
COc1cc(COc2cc(Nc3ccnc(NCc4cc(C)no4)n3)n[nH]2)cc(OC)c1 [Example 73, N′-[5-[(3,5-dimethoxyphenyl)methoxy]-1H-pyrazol-3-yl]-N-[(3-methyl-1,2-oxazol-5-yl)methyl]pyrimidine-2,4-diamine]	1000 to 10000	< 200	< 100	< 200	< 200	IC50 (Erk phosphorylation): < 200 nM
COc1ccc2[nH]c([S+]([O-])Cc3ncc(C)c(OC)c3C)nc2c1 (stereo not shown) [Omeprazole]	–	–	–	–	–	IC50 [3]: 1500 to 4600 nM

Second part, led by results:

IC50 (human IGF1R) [nM]	IC50 (FGFR1 IIIc [1]; [4]) [nM]	IC50 (FGFR kinase domain; [5]) [nM]	IC50 (FGFR1 IIIc [2]) [nM]	IC50 (FGFR1 kinase) [nM]	SMILES	further results
1000 to 10000	< 1000	< 100	< 1000	–	Cc1cc(Nc2ccnc(NCc3cc(C4CC4)no3)n2)n[nH]1 [Example 3, N-[(3-cyclopropylisoxazol-5-yl)methyl]-N ′-(5-methyl-2H-pyrazol-3-yl)pyrimidine-2,4-diamine]	IC50 (Erk phosphorylation): < 200 nM
100 to 1000	< 200	< 100	–	–	c1cc(Nc2cc(C3CC3)[nH]n2)nc(NCc2cc(C3CC3)no2)n1 [Example 10, N-[(3-cyclopropyl-1,2-oxazol-5-yl)methyl]-N′-(5-cyclopropyl-2H-pyrazol-3-yl)pyrimidine-2,4-diamine]	–
> 10000	–	< 100	< 200	< 200	COc1cccc(CCc2cc(Nc3ccnc(NCc4cc(C)no4)n3)n[nH]2)c1 [Example 27, N′-[5-[2-(3-methoxyphenyl)ethyl]-2H-pyrazol-3-yl]-N-[(3-methyl-1,2-oxazol-5-yl)methyl]pyrimidine-2,4-diamine]	–
> 10000	–	< 100	< 10000	< 200	COc1cccc(CCc2cc(Nc3ccnc(NCc4cc(C(N)=O)no4)n3)[nH]n2)c1 [Example 29, 5-[[[4-[[5-[2-(3-methoxyphenyl)ethyl]-2H-pyrazol-3-yl]amino]pyrimidin-2-yl]amino]methyl]-1,2-oxazole-3-carboxamide]	–
> 10000	< 1000	< 100	< 1000	< 200	Cc1cc(CNc2nccc(Nc3cc(OC(C)C)[nH]n3)n2)on1 [Example 66, N-[(3-methyl-1,2-oxazol-5-yl)methyl]-N′-(5-propan-2-yloxy-2H-pyrazol-3-yl)pyrimidine-2,4-diamine]	IC50 (Erk phosphorylation): < 200 nM
> 10000	< 200	< 100	–	< 200	Cc1cc(CNc2nc(C)cc(Nc3cc(OC(C)C)[nH]n3)n2)on1 [Example 68, 6-methyl-N-[(3-methyl-1,2-oxazol-5-yl)methyl]-N′-(5-propan-2-yloxy-1H-pyrazol-3-yl)pyrimidine-2,4-diamine]	–
> 10000	< 200	< 100	–	< 200	COc1cc(Nc2cc(OC(C)C)n[nH]2)nc(NCc2cc(C)no2)n1 [Example 70, 6-methoxy-N-[(3-methyl-1,2-oxazol-5-yl)methyl]-N′-(5-propan-2-yloxy-2H-pyrazol-3-yl)pyrimidine-2,4-diamine]	–
–	–	100 to 1000	–	–	Cc1cc(CNc2nccc(Nc3cc(OCc4ccccc4)[nH]n3)n2)on1 [Example 72, N-[(3-methyl-1,2-oxazol-5-yl)methyl]-N′-(5-phenylmethoxy-1H-pyrazol-3-yl)pyrimidine-2,4-diamine]	IC50 (Erk phosphorylation; upper bound of bin): < 1000 nM
